Test results as given in patent US12612362B2 (SHANXI MEDICAL UNIVERSITY, priority 2021, dated 2026).
Entries after “also recorded” stand apart in the source; their conditions may differ.

Columns and labels:
[1] = system: pancreas islets of the rats; assay: Insulin secretion of isolated rat pancreas islets (insulin radioimmunoassay); details: for effect of promoting insulin secretion: 30 min incubation, n=7
C57BL/6 mice = assay: Oral glucose tolerance test (OGTT); type: in vivo; details: n=7

COc1ccc(C[C@H]2NC[C@H](O)[C@H]2OC(C)=O)cc1 [anisomycin, (2R,3S,4S)-2-[(4-methoxyphenyl)methyl]-3,4-pyrrolidinediol 3-acetate methyl ester]
effect of promoting insulin secretion ([1]; 2.8 mmol/L glucose (2.8G), 10 μM): does not have the effect of promoting insulin secretion; also recorded: does not have the effect of promoting secretion of insulin
effect of promoting insulin secretion ([1]; 11.1 mmol/L glucose (11.1G), 1 μM): has the significant effect of promoting insulin secretion
effect of promoting insulin secretion ([1]; 11.1 mmol/L glucose (11.1G), 10 μM): has the significant effect of promoting insulin secretion; also recorded: has the significant effect of promoting secretion of insulin
effect of promoting insulin secretion ([1]; 16.7 mmol/L glucose (16.7G), 10 μM): can still promote secretion of insulin with significant difference
concentration dependence of promoting insulin secretion ([1]; 11.1G, 0.1 μM, 1 μM and 10 μM): concentration-dependent effect of promoting insulin secretion
tolerance to glucose load (blood glucose curve and AUC in OGTT) (C57BL/6 mice; 5 mg/kg intraperitoneally, vs control group): improved to different extents
glucose reducing effect (blood glucose curve and AUC in OGTT) (C57BL/6 mice; 15 mg/kg intraperitoneally, vs control group and 5 mg/kg): more obvious than 5 mg/kg anisomycin in glucose reducing effect
